Laboratory results published in ChEMBL document CHEMBL3297704, “Theophylline-7-acetic acid derivatives with amino acids as anti-tuberculosis agents” (Bioorg Med Chem Lett, 2014).
Converted amounts (≈) assume the structure as drawn. Where a name gives a salt, the structure may show the parent alone.

Tests used:
[1] = tested on: Mycobacterium tuberculosis; experiment: Antituberculosis activity against Mycobacterium tuberculosis H37Rv assessed as inhibition of bacterial growth after 45 days; format: functional
HEK-293T = experiment: Cytotoxicity against human 293T cells after 72 hrs by MTT assay; format: cell-based

| SMILES | MIC [1] [µM] | IC50 (HEK-293T) [µM] |
| --- | --- | --- |
| COC(=O)[C@H](Cc1cc2ccccc2[nH]1)NC(=O)Cn1cnc2c1c(=O)n(C)c(=O)n2C | 0.46 (≈ 0.202 µg/mL) | > 400 |
| C[C@H](NC(=O)Cn1cnc2c1c(=O)n(C)c(=O)n2C)C(=O)O | 0.65 (≈ 0.201 µg/mL) | > 400 |
| Cn1c(=O)c2c(ncn2CC(=O)N[C@@H](Cc2cc3ccccc3[nH]2)C(=O)O)n(C)c1=O | 0.47 (≈ 0.199 µg/mL) | > 400 |
| CC[C@@H](CO)NCCN[C@@H](CC)CO [ETHAMBUTOL HYDROCHLORIDE] | 7.22 | – |
